Measured values from ChEMBL document CHEMBL1938360, “6-Amino quinazolinedione sulfonamides as orally active competitive AMPA receptor antagonists” (Bioorg Med Chem Lett, 2012).
Active and inactive are the calls of the source. No cut-off for these calls is given here.

Assays:
[1] = Displacement of [3H]CNQX from AMPA receptor on rat brain homogenate; assay type: tissue-based
Mus musculus [2] = experiment: Anticonvulsant activity in DBA/2 mouse assessed as protection from audiogenic seizures at 30 mg/kg, po measured 1 hr post administration; assay type: functional
[3] = Oral bioavailability in DBA/2 mouse at 30 mg/kg; assay type: ADME, organism-based; conditions: in vivo
Mus musculus [4] = experiment: Anticonvulsant activity in DBA/2 mouse assessed as protection from audiogenic seizures at 30 mg/kg, ip measured 1 hr post administration; assay type: functional, organism-based; design: dose 30 mg/kg
[5] = Clearance in DBA/2 mouse at 30 mg/kg; assay type: ADME, organism-based; design: dose 30 mg/kg; conditions: in vivo
Mus musculus [6] = experiment: Anticonvulsant activity against po dosed electric-shock mouse model assessed as inhibition of convulsion in hind legs at 50 mg/kg, po measured 4 hrs post administration; assay type: functional
Mus musculus [7] = experiment: Anticonvulsant activity against po dosed electric-shock mouse model assessed as inhibition of convulsion in hind legs measured 2 hrs post administration; assay type: functional
Mus musculus [8] = experiment: Anticonvulsant activity in orally dosed DBA/2 mouse assessed as protection from tonic seizures measured 1 hr post administration; conditions: DBA/2, po
Mus musculus [9] = experiment: Anticonvulsant activity in DBA/2 mouse assessed as protection from audiogenic seizures at 10 mg/kg, po measured 1 hr post administration; assay type: functional
Mus musculus [10] = experiment: Anticonvulsant activity in intraperitoneally dosed DBA/2 mouse assessed as protection from tonic seizures measured 1 hr post administration; assay type: functional; conditions: DBA/2, ip

Row | IC50 [1] | bioavailability [3] | Compound | Activity (Mus musculus [2]) | further results
1 | 360 nM | 100% | CS(=O)(=O)Nn1c(=O)[nH]c2cc(C(F)(F)F)c(N3CCCOCC3)cc2c1=O | – | clearance [5]: 10.2 mL/min/kg; inhibition in vivo at 50 mg/kg (Mus musculus [6]): 20%; ED50 (Mus musculus [7]): 10.5 mg/kg; ED50 (Mus musculus [8]): 5.5 mg/kg
2 | 44 nM | – | CS(=O)(=O)Nn1c(=O)[nH]c2cc(C(F)(F)F)c(-n3ccnc3)cc2c1=O | inactive | Activity (Mus musculus [4]): Active
3 | 500 nM | 100% | CS(=O)(=O)Nn1c(=O)[nH]c2cc(C(F)(F)F)c(N3CCOCC3)cc2c1=O | – | clearance [5]: 135 mL/min/kg; ED50 (Mus musculus [10]): 58 mg/kg
4 | 46 nM | 10% | CS(=O)(=O)Nn1c(=O)[nH]c2cc(C(F)(F)F)c(-n3cnnc3)cc2c1=O | inactive | ED50 (Mus musculus [10]): 0.94 mg/kg; Activity (Mus musculus [4]): Active
5 | 1200 nM | – | CS(=O)(=O)Nn1c(=O)[nH]c2cc(C(F)(F)F)c(N)cc2c1=O | – | –
6 | 165 nM | – | CS(=O)(=O)Nn1c(=O)[nH]c2cc(C(F)(F)F)c(-n3cccc3)cc2c1=O | – | –

Continued, molecule first:

Row | Compound | IC50 [1] | bioavailability [3] | Activity (Mus musculus [2]) | further results
7 | CNC(=O)c1ncn(-c2cc3c(=O)n(NS(C)(=O)=O)c(=O)[nH]c3cc2C(F)(F)F)n1 | 110 nM | – | – | –
8 | CNC(=O)c1cn(-c2cc3c(=O)n(NS(C)(=O)=O)c(=O)[nH]c3cc2C(F)(F)F)cn1 | – | 10% | inactive | Activity (Mus musculus [4]): Active
9 | CS(=O)(=O)Nn1c(=O)[nH]c2cc(C(F)(F)F)c(NCCO)cc2c1=O | 550 nM | – | – | Activity (Mus musculus [9]): 20%
10 | CCNc1cc2c(=O)n(NS(C)(=O)=O)c(=O)[nH]c2cc1C(F)(F)F | 1000 nM | – | 53% | –
11 | CS(=O)(=O)Nn1c(=O)[nH]c2cc([N+](=O)[O-])c(-n3ccnc3)cc2c1=O | 81 nM | – | inactive | Activity (Mus musculus [4]): Active
12 | CN(C)C(=O)c1ncn(-c2cc3c(=O)n(NS(C)(=O)=O)c(=O)[nH]c3cc2C(F)(F)F)n1 | 1020 nM | – | – | –
13 | CN(C)C(=O)c1cn(-c2cc3c(=O)n(NS(C)(=O)=O)c(=O)[nH]c3cc2C(F)(F)F)cn1 | 420 nM | – | – | –
14 | CN(CCO)c1cc2c(=O)n(NS(C)(=O)=O)c(=O)[nH]c2cc1C(F)(F)F | 250 nM | 100% | – | clearance [5]: 49 mL/min/kg; ED50 (Mus musculus [10]): 7.9 mg/kg
